For one assay, the target named is PRMT5/MEP50 (Homo sapiens, UniProt O14744). In words: MTase-Glo methyl transferase assay, Method A (Histone H4 peptide, 1 µM MTA, 24 h pre-incubation). More on the design: made in house. The settings on record: read-out: PRMT5 MTase Glo Ki (nM, Meth. A). The assay is classed as biochemical. The procedure, abridged: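 PRMT5/MEP50 (10 nM) pre-incubated 24 h with compound, 5 µM SAM and 1 µM MTA, then reaction started with 1 µM Histone H4 (1-21) peptide and run 2 h at room temperature in Tris pH 8.0 buffer. SAH formed detected by MTase-Glo luminescence; IC50 and KI from dose-response curves.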
Chain of PRMT5/MEP50 (O14744 whole entry): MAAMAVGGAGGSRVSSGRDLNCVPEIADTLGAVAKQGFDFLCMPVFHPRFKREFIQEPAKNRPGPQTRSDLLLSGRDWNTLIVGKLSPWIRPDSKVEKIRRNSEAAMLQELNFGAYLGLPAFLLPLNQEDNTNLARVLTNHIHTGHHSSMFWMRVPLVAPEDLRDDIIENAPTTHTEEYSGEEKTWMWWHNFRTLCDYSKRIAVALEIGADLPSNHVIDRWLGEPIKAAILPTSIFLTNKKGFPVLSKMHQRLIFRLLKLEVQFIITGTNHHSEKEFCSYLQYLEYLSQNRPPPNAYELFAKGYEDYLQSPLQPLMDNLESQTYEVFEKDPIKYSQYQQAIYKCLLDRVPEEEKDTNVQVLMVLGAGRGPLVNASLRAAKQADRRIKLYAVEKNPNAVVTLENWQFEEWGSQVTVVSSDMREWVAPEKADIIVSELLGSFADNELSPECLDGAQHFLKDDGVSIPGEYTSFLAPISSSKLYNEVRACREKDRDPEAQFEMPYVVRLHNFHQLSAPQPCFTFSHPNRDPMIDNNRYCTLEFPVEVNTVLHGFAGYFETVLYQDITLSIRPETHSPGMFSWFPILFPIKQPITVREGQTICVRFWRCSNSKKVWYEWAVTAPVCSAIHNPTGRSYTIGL
Chain of PRMT5/MEP50 (Q9BQA1 whole entry partner): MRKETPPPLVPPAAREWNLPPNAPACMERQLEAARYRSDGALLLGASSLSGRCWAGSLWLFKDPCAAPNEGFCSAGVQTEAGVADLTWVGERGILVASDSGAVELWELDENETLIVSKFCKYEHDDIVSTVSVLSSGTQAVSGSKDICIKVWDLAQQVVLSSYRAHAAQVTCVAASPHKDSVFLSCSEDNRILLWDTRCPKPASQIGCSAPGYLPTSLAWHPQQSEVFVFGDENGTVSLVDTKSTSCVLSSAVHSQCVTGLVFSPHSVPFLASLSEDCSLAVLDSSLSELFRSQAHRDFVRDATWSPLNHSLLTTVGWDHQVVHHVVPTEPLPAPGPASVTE

The test system of the next assay is HCT116 WT cells. In words: HCT116 proliferation assay, WT cells (CellTiter-Glo, 6 days). The assay is classed as cell-based. The settings on record: Homo sapiens, HCT-116, 144 h, read-out: Prolif_HCT116-WT IC50. The procedure, abridged:
(§1)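 Both lines grow in RPMI 1640 containing 10% fetal bovine serum. After an overnight rest, they receive compound at up to 1 or 10 µM in threefold serial dilutions, with vehicle wells holding DMSO only.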

Another assay concerns HCT116 MTAP null cells. In words: HCT116 proliferation assay, MTAP null cells (CellTiter-Glo, 6 days). The assay is classed as cell-based. To be noted: 144 h, read-out: Protif_ HCT116-MTAP null IC50. The procedure, abridged: as §1

Here are results for 25 molecules from patent publication US20230159510A1, “NOVEL PRMT5 INHIBITORS” (AMGEN INC., priority 2020, published 2023).

Like-named read-outs stand apart in the source and are kept apart here. Where only a bound is given, the exact number is not on record here.

As for `Cc1cc2cc(C(=O)N(Cc3cc(C#N)ccn3)[C@H](C)c3ncccn3)ccc2nc1N` [Example 513, 2-amino-N-((4-cyano-2-pyridinyl)methyl)-3-methyl-N-((1R)-1-(2-pyrimidinyl)ethyl)-6-quinolinecarboxamide], the inhibitory constant (Ki) at PRMT5/MEP50 stood at 2.61 nM. Further, the IC50 was greater than 10000 nM in the assay with HCT116 WT cells and 552 nM with HCT116 MTAP null cells (HCT116-MTAP null).

In the case of `Cc1cc2cc(C(=O)N(Cc3ccc(Cl)cn3)[C@H](C)c3ncccn3)c(F)cc2nc1N` [Example 415, 2-amino-N-((5-chloro-2-pyridinyl)methyl)-7-fluoro-3-methyl-N-((1R)-1-(2-pyrimidinyl)ethyl)-6-quinolinecarboxamide], the Ki at PRMT5/MEP50 came to 0.54 nM. For the same molecule, the IC50 in the assay with HCT116 WT cells was found to be 490 nM; in the assay on HCT116 MTAP null cells (HCT116-MTAP null), 39 nM.

In the case of `Cc1c(N)nc2ccc(C(=O)N(Cc3ccc(C#N)cn3)[C@H](C)c3ncccn3)cc2c1C` [Example 545, 2-amino-N-((5-cyano-2-pyridinyl)methyl)-3,4-dimethyl-N-((1R)-1-(2-pyrimidinyl)ethyl)-6-quinolinecarboxamide], the Ki on PRMT5/MEP50 stood at 0.41 nM. Further, the figures for the IC50 with HCT116 WT cells and in the assay on HCT116 MTAP null cells (HCT116-MTAP null) were 478 nM and 32 nM, respectively.

On to `Cc1cc2cc(C(=O)N(Cc3ccc(C(F)(F)F)cn3)CC3CC3)ccc2nc1N` [Example 325, 2-amino-N-(cyclopropylmethyl)-3-methyl-N-((5-(trifluoromethyl)-2-pyridinyl)methyl)-6-quinolinecarboxamide], for which, at PRMT5/MEP50, the inhibition constant (Ki) came to 2.76 nM. The concentration for half-maximal inhibition (IC50) came out at 6180 nM in the assay with HCT116 WT cells and 679 nM in the assay with HCT116 MTAP null cells (HCT116-MTAP null).

Take `CC[C@H](c1ncccn1)N(Cc1ccc(C(F)F)cn1)C(=O)c1cnc2nc(N)c(Br)cc2c1` (single isomer, unassigned) [Example 500]: the Ki at PRMT5/MEP50 came out at 0.52 nM. For the same molecule, the half-inhibitory concentration (IC50) with HCT116 WT cells was 4590 nM; in the assay on HCT116 MTAP null cells (HCT116-MTAP null), 187 nM.

In the case of `Cc1cc2c(CN(Cc3ccc(C(F)(F)F)cn3)C(=O)c3ccc4nc(N)c(C)cc4c3)ccnc2[nH]1` [Example 506, 2-amino-3-methyl-N-((2-methyl-1H-pyrrolo[2,3-b]pyridin-4-yl)methyl)-N-((5-(trifluoromethyl)-2-pyridinyl)methyl)-6-quinolinecarboxamide], the Ki on PRMT5/MEP50 came to 0.01 nM. Moreover, the IC50 with HCT116 WT cells was found to be 1160 nM; in the assay on HCT116 MTAP null cells (HCT116-MTAP null) it was 107 nM.

On to `Cc1cc2cc(C(=O)N(Cc3ccc(C#N)cn3)[C@@H]3CCCn4ncnc43)ccc2nc1N` (single isomer, unassigned) [Example 523], for which, at PRMT5/MEP50, the inhibitory constant (Ki) was found to be 0.35 nM. Also, the IC50 with HCT116 WT cells came out at 6380 nM; in the assay with HCT116 MTAP null cells (HCT116-MTAP null), 334 nM.

In the case of `Cc1cc2cc(C(=O)N(Cc3ccc(C(F)(F)F)cn3)[C@H](C)c3ncccn3)c(Cl)cc2nc1N` [Example 437, 2-amino-7-chloro-3-methyl-N-((1R)-1-(2-pyrimidinyl)ethyl)-N-((5-(trifluoromethyl)-2-pyridinyl)methyl)-6-quinolinecarboxamide], the Ki at PRMT5/MEP50 turned out to be 0.29 nM. Moreover, the IC50 is 1350 nM in the assay with HCT116 WT cells and 76 nM with HCT116 MTAP null cells (HCT116-MTAP null).

`C[C@H](c1ncccn1)N(Cc1ccc(C(F)(F)F)cn1)C(=O)c1cnc2nc(N)c(Cl)cc2c1` [Example 420, 7-amino-6-chloro-N-((1R)-1-(2-pyrimidinyl)ethyl)-N-((5-(trifluoromethyl)-2-pyridiny1)methyl)-1,8-naphthyridine-3-carboxamide]: the Ki on PRMT5/MEP50 stood at 0.18 nM. Further, the figures for the half-maximal inhibitory concentration (IC50) in the assay on HCT116 WT cells and with HCT116 MTAP null cells (HCT116-MTAP null) were 3450 nM and 225 nM, respectively.

Regarding `CO[C@H](CN(Cc1ccc(C(F)(F)F)cn1)C(=O)c1ccc2nc(N)c(C)cc2c1)C(F)(F)F` (single isomer, unassigned) [Example 453], the Ki on PRMT5/MEP50 was 0.06 nM. Moreover, the half-inhibitory concentration (IC50) is 1720 nM in the assay with HCT116 WT cells and 65 nM in the assay on HCT116 MTAP null cells (HCT116-MTAP null).

In the case of `COC(=O)N1CC=C(c2ccc(CN(C(=O)c3ccc4nc(N)c(C)cc4c3)[C@H](C)c3ncccn3)nc2)CC1` [Example 551, methyl 6-((((2-amino-3-methyl-6-quinolinyl)carbonyl)((1R)-1-(2-pyrimidinyl)ethyl)amino)methyl)-3’,6′-dihydro[3,4′-bipyridine]-1′(2′H)-carboxylate], the inhibition constant Ki at PRMT5/MEP50 amounted to 0.14 nM. The results for the IC50 with HCT116 WT cells and with HCT116 MTAP null cells (HCT116-MTAP null) were 634 nM and 21 nM, respectively.

Take `COC(=O)c1ccc(CN(C(=O)c2ccc3nc(N)c(C)cc3c2)[C@H](C)c2ncccc2F)nc1` [Example 403, methyl 6-((((2-amino-3-methyl-6-quinolinyl)carbonyl)((1R)-1-(3-fluoro-2-pyridinyl)ethyl)amino)methyl)-3-pyridinecarboxylate]: on PRMT5/MEP50, the Ki is 0.55 nM. The IC50 stood at 8880 nM in the assay on HCT116 WT cells and 263 nM with HCT116 MTAP null cells (HCT116-MTAP null).

`Cc1cc2cc(C(=O)N(Cc3ccc(C(F)(F)F)cn3)[C@H](C)c3ncccn3)cnc2nc1N` (single isomer, unassigned) [Example 486]: on PRMT5/MEP50, the Ki came out at 0.42 nM. Besides, the IC50 in the assay with HCT116 WT cells was 3830 nM; in the assay with HCT116 MTAP null cells (HCT116-MTAP null), 123 nM.

`C[C@H](c1ccc(F)cc1F)N(Cc1ccc(C(F)(F)F)cn1)C(=O)c1cnc2nc(N)c(Br)cc2c1` [Example 346, 7-amino-6-bromo-N-((1R)-1-(2,4-difluorophenyl)ethyl)-N-((5-(trifluoromethyl)-2-pyridinyl)methyl)-1,8-naphthyridine-3-carboxamide]: at PRMT5/MEP50, the inhibition constant (Ki) came out at 0.04 nM. Also, the values for the concentration for half-maximal inhibition (IC50) in the assay with HCT116 WT cells and in the assay with HCT116 MTAP null cells (HCT116-MTAP null) were 1580 nM and 81 nM, respectively.

With `Cc1cc2cc(C(=O)N(Cc3ccc(C#N)cn3)[C@H](C)c3ncccc3F)c(F)cc2nc1N` [Example 353, 2-amino-N-((5-cyano-2-pyridinyl)methyl)-7-fluoro-N-((1R)-1-(3-fluoro-2-pyridinyl)ethyl)-3-methyl-6-quinolinecarboxamide], on PRMT5/MEP50, the inhibitory constant (Ki) was found to be 0.02 nM. Also, the concentration for half-maximal inhibition (IC50) in the assay on HCT116 WT cells worked out at 1510 nM; in the assay on HCT116 MTAP null cells (HCT116-MTAP null), 73 nM.

In the case of `C[C@H](c1ncccn1)N(Cc1ccc(C(F)(F)F)cn1)C(=O)c1cc2cc(Cl)c(N)nc2cn1` [Example 422, 2-amino-3-chloro-N-((1R)-1-(2-pyrimidinyl)ethyl)-N-((5-(trifluoromethyl)-2-pyridinyl)methyl)-1,7-naphthyridine-6-carboxamide], the Ki on PRMT5/MEP50 is 0.2 nM. Also, the IC50 with HCT116 WT cells is greater than 10000 nM; in the assay with HCT116 MTAP null cells (HCT116-MTAP null), 360 nM.

For `Cc1cc2cc(C(=O)N(Cc3ccc(NCC(F)(F)F)nn3)[C@H](C)c3ncccn3)ccc2nc1N` [Example 378, 2-amino-3-methyl-N-((1R)-1-(2-pyrimidinyl)ethyl)-N-((6-((2,2,2-trifluoroethyl)amino)-3-pyridazinyl)methyl)-6-quinolinecarboxamide], the Ki on PRMT5/MEP50 stood at 0.04 nM. The half-inhibitory concentration (IC50) with HCT116 WT cells was found to be 6960 nM; in the assay on HCT116 MTAP null cells (HCT116-MTAP null), 340 nM.

In the case of `Cc1cc2cc(C(=O)N(Cc3cccc(C(F)(F)F)n3)[C@H](C)c3ncccn3)ccc2nc1N` (single isomer, unassigned) [Example 526], the Ki on PRMT5/MEP50 came out at 0.33 nM. Moreover, the IC50 was greater than 10000 nM with HCT116 WT cells and 323 nM in the assay with HCT116 MTAP null cells (HCT116-MTAP null).

In the case of `Cc1cc2cc(C(=O)N(Cc3ccc(C(F)(F)F)nc3C)[C@H](C)c3ncccn3)ccc2nc1N` [Example 509, 2-amino-3-methyl-N-((2-methyl-6-(trifluoromethyl)-3-pyridinyl)methyl)-N-((1R)-1-(2-pyrimidinyl)ethyl)-6-quinolinecarboxamide], at PRMT5/MEP50, the inhibition constant (Ki) was 0.13 nM. For the same molecule, the IC50 was determined as 4120 nM in the assay with HCT116 WT cells and 137 nM in the assay on HCT116 MTAP null cells (HCT116-MTAP null).

Turning to `C[C@H](c1ncccn1)N(Cc1ccc(C(F)(F)F)cn1)C(=O)c1cc2cc(Br)c(N)nc2cn1` [Example 419, 2-amino-3-bromo-N-((1R)-1-(2-pyrimidinyl)ethyl)-N-((5-(trifluoromethyl)-2-pyridinyl)methyl)-1,7-naphthyridine-6-carboxamide], at PRMT5/MEP50, the Ki was 0.16 nM. For the same molecule, the figures for the IC50 in the assay on HCT116 WT cells and in the assay with HCT116 MTAP null cells (HCT116-MTAP null) were greater than 10000 nM and 271 nM, respectively.

On to `CC(C)CN(Cc1ccc(C(F)(F)F)cn1)C(=O)c1ccc2nc(N)c(Br)cc2c1` [Example 318, 2-amino-3-bromo-N-(2-methylpropyl)-N-((5-(trifluoromethyl)-2-pyridinyl)methyl)-6-quinolinecarboxamide], for which the Ki at PRMT5/MEP50 is 1.91 nM. For the same molecule, the IC50 in the assay with HCT116 WT cells is greater than 10000 nM; in the assay on HCT116 MTAP null cells (HCT116-MTAP null), 952 nM.

Turning to `C#Cc1cc2cc(C(=O)N(Cc3ccc(C(F)(F)F)cn3)[C@H](C)c3ncccc3F)cnc2nc1N` [Example 543, (R)-7-amino-6-ethynyl-N-(1-(3-fluoropyridin-2-yl)ethyl)-N-((5-(trifluoromethyl)pyridin-2-yl)methyl)-1,8-naphthyridine-3-carboxamide], at PRMT5/MEP50, the inhibitory constant (Ki) stood at 0.59 nM. The IC50 is greater than 10000 nM in the assay on HCT116 WT cells and 568 nM in the assay with HCT116 MTAP null cells (HCT116-MTAP null).

For `Cc1cc2cc(C(=O)N(Cc3ccc(C(F)(F)F)cn3)[C@@H]3CCCN(C)C3=O)ccc2nc1N` (single isomer, unassigned) [Example 460], the Ki on PRMT5/MEP50 was 1.82 nM. Besides, the results for the half-inhibitory concentration (IC50) in the assay with HCT116 WT cells and with HCT116 MTAP null cells (HCT116-MTAP null) were 7850 nM and 155 nM, respectively.

Turning to `Nc1nc2ncc(C(=O)N(Cc3ccc(C(F)(F)F)cn3)[C@@H]3CCCc4nccnc43)cc2cc1Br` (single isomer, unassigned) [Example 467], the Ki at PRMT5/MEP50 was 0.21 nM. The concentration for half-maximal inhibition (IC50) was determined as 248 nM with HCT116 WT cells and 28 nM with HCT116 MTAP null cells (HCT116-MTAP null).

As to `Cc1cc2cc(C(=O)N(Cc3ccc(C(F)(F)F)cn3)CC(C)C)c(F)cc2nc1N` [Example 314, 2-amino-7-fluoro-3-methyl-N-(2-methylpropyl)-N-((5-(trifluoromethyl)-2-pyridinyl)methyl)-6-quinolinecarboxamide], on PRMT5/MEP50, the inhibition constant (Ki) came to 0.35 nM. For the same molecule, the concentration for half-maximal inhibition (IC50) in the assay with HCT116 WT cells amounted to 5130 nM; with HCT116 MTAP null cells it was 218 nM.
